We go through one compound from patent publication US20040101571A1, “Use of hydrogen peroxide for the treatment of warts” (priority 2002, published 2004).

In this test the test system is warts (human papillomavirus-induced tumors). In words: Topical treatment of warts in human patients (clinical case examples). It counts as in vivo. The text has this: The method of the present invention neither destroys healthy, uninfected tissue nor results in any local or systemic side effects, scarring, disfigurement or discomfort to the human treated. Furthermore, the use of the present method results in the destruction of latent viral DNA found in the tumor and the surrounding tissues so that instances of incomplete resolution and are prevented. […] In accordance with the method according to this invention, “regular use of the hydrogen peroxide” is meant to mean application of the hydrogen peroxide at least once a day to the body surface containing the wart(s). A further embodiment of the method of this invention comprises placing a small amount of gel residue or gel on the tumor to be treated. It has been determined through clinical evaluation that once the method of this invention is initiated, the warts begin to shrink, no matter what size, and will totally disappear after a period of four to six weeks of treatment, or less if the gel is applied more often than once daily at bedtime.
A person presented with warts on the right foot of some two months duration; measuring about 3 mm in diameter, with raised dark spots on the surface. Hydrogen peroxide gel was applied once daily at bedtime over the wart with a Q-tip and left open to air dry. […]

As for `OO` [hydrogen peroxide], under “clinical evaluation, applied once daily at bedtime, warts of any size begin to shrink, less if applied more often”, the “period of treatment until warts totally disappear” value is given as “four to six”. In addition, where the note is “clinical experience to date”, the “overall clinical experience in treatment and elimination of warts” value is recorded as “complete eradication of the warts with no recurrence”.
